Type in all cases: cell-based
In one data set the test system is PBL. Put plainly: Toxicity on nucleated cells, human PBL. The following applies: 90 min. As to the method:
B.2: Study of the toxicity on nucleated cells
The solutions of the amphotericine B derivatives are prepared similarly to those mentioned in paragraph B.1.
The cells are prepared by placing 20 ml of blood diluted to 1/2 with 0.9% NaCl into a tube together with 10 ml of Ficoll-hypaque, and the mixture is centrifuged at 2000 rpm for 30 minutes. The cell nuclei are recovered and washed twice with PBS buffer containing 5% of foetal calf serum.
The cells are prepared by suspending 1.14×10^6 cells/ml in RPMI 1640 containing 2.5% of foetal calf serum and by filling each well with 150 μl. 50 μl of each dilution of the derivatives are added and also one control (5% glucose solution).
The cells are then incubated in a steam cabinet at a CO2 concentration of 5% for 1 hour 30 at 37° C. or at ambient temperature.
To evaluate the toxicity of the derivatives, a cell count in the presence of trypan blue is made, and the LD 50 (concentration of the derivative leading to a mortality of 50%) is calculated with respect to the control (5% glucose solution) for each concentration of each derivative.

In another data set the test system is DAUDI (human lymphoma B). Put plainly: Toxicity on nucleated cells, DAUDI human lymphoma B. The following applies: 1 hour 30, trypan blue, 90 min, read-out: LD 50 (concentration leading to a mortality of 50%).
Data set [1] has as its system red corpuscles. Nature of the data set: Toxicity on red corpuscles (lysis), mice. The following applies: 37° C., 1 hour 30, 90 min, read-out: LD 50 (dose which leads to lysis in 50% of the erythrocytes). On the procedure: (§1) B.1: Study of the toxicity on red corpuscles
(§2) All the solutions of the AmB derivatives according to the invention were prepared immediately before use by diluting 4 mg of substance in 100 μl of 5% glucose solution, and then, after 15 minutes protected from light, 100 μl of sterile distilled water are added, and the mixture is made up to stock solutions of 4 mg/ml with a 5% glucose solution. For comparative study of the effects of AmB, 4 mg of FUNGIZONE are diluted with 1 ml of 5% glucose.
(§3) The cells are prepared by placing 1 ml of a peripheral blood sample into a tube together with Ficollhypaque to remove the lymphocytes, and then centrifuging the mixture at 2000 rpm for 20 minutes. The remaining red corpuscles are recovered, washed once with 0.9% NaCl and then twice with 150 Mm KCl, 0.5 Mm tris-HCl, pH 7.4.
(§4) A 1.25% suspension is then prepared with 150 mM KCl solution, 0.5 mM tris-HCl, pH 7.4, and 150 μl thereof are distributed in wells along with 50 μl of each of the dilutions of the derivatives, plus a control well (5% glucose solution).
(§5) The cells are then incubated at 37° C. in a steam cabinet for 1 hour 30.
(§6) To evaluate the cell lysis, haemoglobin is essayed by removing 100 μl of the supernatant in each well and diluting the sample with 1 ml of distilled water.
(§7) The haemoglobin concentration is calculated by measuring the optical density at 540 nm and taking into account the absorption of the derivatives of amphotericine B.
(§8) LD 50 is the dose which leads to lysis in 50% of the erythrocytes (a control of 100% lysis is obtained with distilled water, and reference lysis of 0% is obtained with the 5% glucose solution).

Another data set concerns Aspergillus fumigatus. Nature of the data set: Diffusion method in agar-agar medium (Sabouraud agar-agar). The following applies: Sabouraud agar-agar, disc diameter 1 cm, 0.1 ml. On the procedure:
(§9) A.2 : Study of the antibiotic efficiency of amphotericine B derivatives in agar-agar medium against Aspergillus
(§10) The antibiotic activity was tested by the diffusion method in agar-agar medium (Sabouraud agar-agar).
(§11) The efficiency of each molecule was determined by the size of the growth-inhibiting zone around a WHATMAN 3M paper disc impregnated with the antibiotic substance of a given concentration.
(§12) A suspension of Aspergillus spores in a broth was prepared, 0.2 ml of this suspension was used to inoculate at its surface an agar-agar medium which was solidified in such a manner that a homogeneous growth layer was obtained. After spreading, the WHATMAN 3M paper discs (diameter: 1 cm) were placed on the surface of the agar-agar, and then impregnated with 0.1 ml of the antibiotic substance at different concentrations.

A further data set relates to Aspergillus flavus. The description is as above. The following applies: Sabouraud agar-agar, disc diameter 1 cm, 0.1 ml. As to the method: as §9, §10, §11, §12
In the next data set the test system is thymocytes. Put plainly: Toxicity on nucleated cells, mice thymocytes. The following applies: 1 hour 30, trypan blue, 90 min, read-out: LD 50 (concentration leading to a mortality of 50%).
The test system of the next data set is X 63 (mice lymphoma B). Put plainly: Toxicity on nucleated cells, X 63 mice lymphoma B. The following applies: 1 hour 30, trypan blue, 90 min, read-out: LD 50 (concentration leading to a mortality of 50%).
The next data set relates to Candida albicans. Put plainly: Growth inhibition in liquid medium (Sabouraud broth). The following applies: Sabouraud broth, 28° C., 18 hours; read-out: IC 50 (growth-inhibiting concentration of 50%). As to the method:
(§13) A.1 : Study of the antibiotic efficiency of AmB derivatives in liquid medium against different yeasts
(§14) The antibiotic efficiency was tested by the growth inhibition method in liquid medium (Sabouraud broth) in the presence of different concentrations of the derivatives studied.
(§15) A yeast suspension was cultivated in a broth in such a manner that about 1×10^2 cell/ml were obtained.
(§16) The tubes containing the different concentrations of antifungal substance were inoculated with the same amount of yeast cells, and were then incubated at 28° C. for 18 hours with stirring. For each concentration of antifungal substance, two identical tubes were prepared.
(§17) The inhibition of fungal growth corresponding to the different concentrations was evaluated for each molecule by spectrophotometry at 620 nm and expressed in percent with respect to a reference solution without antifungal substance.

For another data set, the system named is Saccharomyces cerevisiae. Described as above. The following applies: Sabouraud broth, 28° C., 18 hours; read-out: IC 50 (growth-inhibiting concentration of 50%). On the procedure:
as §13, §14, §15, §16, §17

The subject of data set [2] is red corpuscles. Nature of the data set: Toxicity on red corpuscles (lysis), human. The following applies: 37° C., 1 hour 30, 90 min, 90 min, read-out: LD 50 (dose which leads to lysis in 50% of the erythrocytes). As to the method:
as §1, §2, §3, §4, §5, §6, §7, §8

The test system of another data set is Cryptoccocus neoformans. Nature of the data set: Growth inhibition in liquid medium (Sabouraud broth). The following applies: Sabouraud broth, 28° C., 18 hours; read-out: IC 50 (growth-inhibiting concentration of 50%). As to the method: as §13, §14, §15, §16, §17
Where [3] appears, read: human PBL, 1 hour 30, trypan blue, read-out: LD 50 (concentration leading to a mortality of 50%).

SMILES strings stand for the structures. Counter-ions that a name gives are not always drawn. Like-named read-outs stand apart in the source and are kept apart here.

On to `C[C@@H]1[C@H](O)[C@@H](C)/C=C/C=C/C=C/C=C/C=C/C=C/C=C/[C@H](O[C@@H]2O[C@H](C)[C@@H](O)[C@H](NCC3(O)O[C@H](C(N)=O)[C@@H](O)[C@@H]3O)[C@@H]2O)C[C@@H]2O[C@](O)(C[C@@H](O)C[C@@H](O)[C@H](O)CC[C@@H](O)C[C@@H](O)CC(=O)O[C@H]1C)C[C@H](O)[C@H]2C(=O)O` (some centres unmarked) [Acetic acid NMG salt], for which, in the data set on PBL (human PBLs, AmB 12 derivative, comparison of different catalysts (Table 4), read-out: LD 50 (the source's name)), the CC50 worked out at 200 µM.

As to `C[C@@H]1[C@H](O)[C@@H](C)/C=C/C=C/C=C/C=C/C=C/C=C/C=C/[C@H](O[C@@H]2O[C@H](C)[C@@H](O)[C@H](NCC3(O)O[C@H](C(N)=O)[C@@H](O)[C@@H]3O)[C@@H]2O)C[C@@H]2O[C@](O)(C[C@@H](O)C[C@@H](O)[C@H](O)CC[C@@H](O)C[C@@H](O)CC(=O)O[C@H]1C)C[C@H](O)[C@H]2C(=O)O` (stereo partly drawn) [AmB 12 G, 1-amino-1-deoxy-D-arabinoglucuronamidyl-AmB], the CC50 was more than 300 µM in the data set with DAUDI (human lymphoma B), 46 µM in the data set on PBL (setting [3]), 5 µM in the data set on thymocytes and 500 µM in the data set on X 63 (mice lymphoma B). In addition, the HC50 in the data set with red corpuscles [1] was determined as 20 µM; in the data set with red corpuscles [2], 30 µM. The entries for the “concentration giving a growth inhibition of 1 cm around a disc in solid medium” value (“concentration giving a growth inhibition” below) with Aspergillus fumigatus and in the data set with Aspergillus flavus were 1 × 10^-4 molarity and 9 × 10^-5 molarity, respectively. In addition, the IC50 in the data set with Candida albicans amounted to 0.1 µM; in the data set on Saccharomyces cerevisiae, 0.62 µM.

With `C[C@@H]1[C@H](O)[C@@H](C)/C=C/C=C/C=C/C=C/C=C/C=C/C=C/[C@H](O[C@@H]2O[C@H](C)[C@@H](O)[C@H](NCC3(O)O[C@H](C(=O)O)[C@@H](O)[C@@H]3O)[C@@H]2O)C[C@@H]2O[C@](O)(C[C@@H](O)C[C@@H](O)[C@H](O)CC[C@@H](O)C[C@@H](O)CC(=O)O[C@H]1C)C[C@H](O)[C@H]2C(=O)O` (stereo partly drawn) [AmB 17 G, 1-amino-1-deoxy-D-arabinoglucuronyl-AmB], the CC50 in the data set with DAUDI (human lymphoma B) turned out to be 300 µM; in the data set with PBL (setting [3]), 10 µM; in the data set with thymocytes it was 5 µM; in the data set with X 63 (mice lymphoma B) it was 150 µM. Besides, the HC50 was determined as 10 µM with red corpuscles [1] (90 min) and 50 µM in the data set on red corpuscles [2]. Moreover, the results for the “concentration giving a growth inhibition” value with Aspergillus fumigatus and with Aspergillus flavus were 3.5 × 10^-5 molarity and 9 × 10^-5 molarity, respectively. Also, the IC50 in the data set on Cryptoccocus neoformans worked out at 0.06 µM; in the data set on Saccharomyces cerevisiae, 0.86 µM.

`C[C@@H]1[C@H](O)[C@@H](C)/C=C/C=C/C=C/C=C/C=C/C=C/C=C/[C@H](O[C@@H]2O[C@H](C)[C@@H](O)[C@H](NCC(=O)[C@@H](O)[C@@H]3OC(c4ccccc4)OC[C@H]3O)[C@@H]2O)C[C@@H]2O[C@](O)(C[C@@H](O)C[C@@H](O)[C@H](O)CC[C@@H](O)C[C@@H](O)CC(=O)O[C@H]1C)C[C@H](O)[C@H]2C(=O)O` (stereo partly drawn) [AmB 20 G, 1-deoxy-1-amino-4,6O-benzylidene-D-fructosyl-AmB]: the CC50 in the data set with DAUDI (human lymphoma B) was determined as 500 µM; in the data set on PBL (setting [3]), 30 µM; in the data set with thymocytes, 4 µM; with X 63 (mice lymphoma B), 150 µM. In addition, the HC50 with red corpuscles [1] (90 min) amounted to 4 µM; in the data set on red corpuscles [2], 80 µM. The “concentration giving a growth inhibition” value in the data set with Aspergillus fumigatus is given as 1.3 × 10^-4 molarity; in the data set with Aspergillus flavus, 6 × 10^-4 molarity. Further, the figures for the IC50 in the data set with Candida albicans, in the data set on Cryptoccocus neoformans and in the data set on Saccharomyces cerevisiae were 0.1 µM, 0.06 µM and 1 µM, respectively.

As for `CC1OC[C@@H](O)[C@H]([C@H](O)C(=O)CN[C@@H]2[C@H](O)[C@H](O[C@H]3/C=C/C=C/C=C/C=C/C=C/C=C/C=C/[C@H](C)[C@@H](O)[C@@H](C)[C@H](C)OC(=O)C[C@H](O)C[C@H](O)CC[C@@H](O)[C@H](O)C[C@H](O)C[C@]4(O)C[C@H](O)[C@@H](C(=O)O)[C@H](C3)O4)O[C@H](C)[C@H]2O)O1` (stereo partly drawn) [AmB 22 G, 1-deoxy-1-amino-4,6-O-ethylidene-D-fructosyl-AmB], the CC50 is 700 µM in the data set with DAUDI (human lymphoma B), 30 µM in the data set with PBL (setting [3]), 5 µM in the data set with thymocytes and 400 µM with X 63 (mice lymphoma B). Also, the values for the HC50 in the data set on red corpuscles [1] (90 min) and in the data set with red corpuscles [2] were 10 µM and 50 µM, respectively. The “concentration giving a growth inhibition” value in the data set on Aspergillus fumigatus is on record as 1 × 10^-4 molarity; in the data set on Aspergillus flavus, 9 × 10^-5 molarity. Moreover, the values for the IC50 in the data set with Candida albicans, in the data set with Cryptoccocus neoformans and with Saccharomyces cerevisiae were 0.09 µM, 0.12 µM and 1.2 µM, respectively.

As for `CC(=O)NC[C@H]1OC(O)(CN[C@@H]2[C@H](O)[C@H](O[C@H]3/C=C/C=C/C=C/C=C/C=C/C=C/C=C/[C@H](C)[C@@H](O)[C@@H](C)[C@H](C)OC(=O)C[C@H](O)C[C@H](O)CC[C@@H](O)[C@H](O)C[C@H](O)C[C@]4(O)C[C@H](O)[C@@H](C(=O)O)[C@H](C3)O4)O[C@H](C)[C@H]2O)[C@@H](O)[C@@H]1O` (some centres unmarked) [AmB 23 G, 6-deoxy-6-N-acetyl-1-deoxy-1-amino-fructosyl-AmB], the CC50 came out at 300 µM with DAUDI (human lymphoma B), 8 µM in the data set on PBL (setting [3]), 2.5 µM with thymocytes and 500 µM in the data set on X 63 (mice lymphoma B). The HC50 in the data set on red corpuscles [1] (90 min) came out at 4 µM; in the data set on red corpuscles [2] it was 1 µM. Further, the figures for the “concentration giving a growth inhibition” value in the data set on Aspergillus fumigatus and in the data set with Aspergillus flavus were 9 × 10^-5 molarity and 5 × 10^-4 molarity, respectively. For the same compound, the IC50 is 0.17 µM in the data set on Cryptoccocus neoformans and 1 µM in the data set on Saccharomyces cerevisiae.
